From the supplement of paper PMC10307832

Key:
Assay in all cases: relative viability (nuclei count vs DMSO), 5 days (fraction); higher = more cells survive
[1] = compound: CC1=C(N=C(N=C1N)[C@H](CC(=O)N)NC[C@@H](C(=O)N)N)C(=O)N[C@@H]([C@H](C2=CN=CN2)OC3C(C(C(C(O3)CO)O)O)OC4C(C(C(C(O4)CO)O)OC(=O)N)O)C(=O)N[C@H](C)[C@H]([C@H](C)C(=O)N[C@@H]([C@@H](C)O)C(=O)NCCC5=NC(=CS5)C6=NC(=CS6)C(=O)NCCC[S+](C)C)O [Bleomycin] + Cc1nc(NC(=O)N2CCC[C@H]2C(N)=O)sc1-c1ccnc(C(C)(C)C(F)(F)F)c1 [Alpelisib] (partner 2 µM); settings: main component drawn
How it was run: (§1)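 Each reported value is a median over duplicate plates. It expresses relative viability: treated-well nuclei count divided by vehicle-well nuclei count. Lung cancer cell lines in 1536-well plates were dosed by pin tool a day after seeding, alone with one drug or with a fixed anchor-drug dose plus five library-drug doses (not always all listed) in √10 steps, and nuclei were counted after 5 days.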

[2] = compound: COc1cc([C@@H]2c3cc4c(cc3[C@@H](O[C@@H]3O[C@@H]5CO[C@@H](C)O[C@H]5[C@H](O)[C@H]3O)[C@H]3COC(=O)[C@H]23)OCO4)cc(OC)c1O [Etoposide] + CS(=O)(=O)N1CCN(Cc2cc3nc(-c4cccc5[nH]ncc45)nc(N4CCOCC4)c3s2)CC1 [Pictilisib] (partner 1 µM)
How it was run: as §1

[3] = compound: COc1cc([C@@H]2c3cc4c(cc3[C@@H](O[C@@H]3O[C@@H]5CO[C@@H](C)O[C@H]5[C@H](O)[C@H]3O)[C@H]3COC(=O)[C@H]23)OCO4)cc(OC)c1O [Etoposide] + Nc1nc2[nH]cc(CCc3ccc(C(=O)N[C@@H](CCC(=O)O)C(=O)O)cc3)c2c(=O)[nH]1 [Pemetrexed] (partner 0.2 µM)
How it was run: as §1

[4] = compound: CC1=C(N=C(N=C1N)[C@H](CC(=O)N)NC[C@@H](C(=O)N)N)C(=O)N[C@@H]([C@H](C2=CN=CN2)OC3C(C(C(C(O3)CO)O)O)OC4C(C(C(C(O4)CO)O)OC(=O)N)O)C(=O)N[C@H](C)[C@H]([C@H](C)C(=O)N[C@@H]([C@@H](C)O)C(=O)NCCC5=NC(=CS5)C6=NC(=CS6)C(=O)NCCC[S+](C)C)O [Bleomycin] + CC(=O)c1c(C)c2cnc(Nc3ccc(N4CCNCC4)cn3)nc2n(C2CCCC2)c1=O [Palbociclib] (partner 0.5 µM); settings: main component drawn
How it was run: as §1

Cell Line	relative viability ([1]; first compound 0.01 µM)	relative viability ([1]; first compound 0.03162 µM)	relative viability ([1]; first compound 0.1 µM)	relative viability ([1]; first compound 0.3162 µM)	relative viability ([1]; first compound 1 µM)	relative viability ([2]; first compound 0.01 µM)	relative viability ([2]; first compound 0.03162 µM)	relative viability ([2]; first compound 0.1 µM)	relative viability ([2]; first compound 0.3162 µM)	relative viability ([2]; first compound 1 µM)	relative viability ([3]; first compound 0.01 µM)	relative viability ([3]; first compound 0.03162 µM)	relative viability ([3]; first compound 0.1 µM)	relative viability ([3]; first compound 0.3162 µM)	relative viability ([3]; first compound 1 µM)	relative viability ([4]; first compound 0.01 µM)	relative viability ([4]; first compound 0.03162 µM)	relative viability ([4]; first compound 0.1 µM)	relative viability ([4]; first compound 0.3162 µM)	relative viability ([4]; first compound 1 µM)
LU99A	0.345	0.332	0.239	0.137	0.118	0.362	0.337	0.237	0.212	0.159	0.161	0.18	0.186	0.163	0.167	0.329	0.405	0.286	0.167	0.126
NCI-H2405	0.648	0.704	0.615	0.312	0.306	0.455	0.508	0.268	0.399	0.315	1.07	1.14	0.846	0.935	0.365	0.424	0.502	0.544	0.346	0.323
NCI-H2009	1.05	1.16	1.16	0.84	0.531	0.693	0.898	0.54	0.543	0.236	0.976	0.957	1.12	0.703	0.57	0.202	0.164	0.215	0.16	0.192
HCC-15	0.79	0.852	0.751	0.35	0.236	0.758	0.713	0.428	0.292	0.141	0.213	0.222	0.218	0.183	0.171	0.711	0.686	0.648	0.343	0.285
HCC-44	0.45	0.27	0.224	0.212	0.162	0.529	0.601	0.531	0.589	0.275	0.64	0.684	0.801	0.64	0.601	0.861	0.821	0.64	0.455	0.382
COR-L23	0.516	0.495	0.262	0.0744	0.0882	0.733	0.726	0.401	0.418	0.122	0.198	0.207	0.207	0.214	0.189	0.184	0.237	0.151	0.115	0.0887
HCC-78	0.287	0.266	0.285	0.222	0.174	0.218	0.202	0.144	0.188	0.15	0.901	0.954	0.84	0.916	0.906	0.522	0.533	0.412	0.4	0.463
NCI-H838	0.674	0.29	0.238	0.161	0.212	0.461	0.544	0.284	0.329	0.186	0.277	0.259	0.274	0.251	0.239	0.22	0.173	0.169	0.153	0.129
NCI-H2126	0.758	0.789	0.808	0.6	0.552	0.536	0.55	0.419	0.392	0.332	0.633	0.878	0.591	0.677	0.461	0.338	0.384	0.298	0.33	0.319
BEN	1.01	0.921	0.937	0.762	0.738	0.477	0.62	–	0.545	0.376	0.87	1.05	–	0.727	0.669	0.482	0.473	0.452	0.444	0.408
LCLC-103H	0.92	0.967	1.05	0.934	0.4	0.541	0.74	0.527	0.679	0.519	0.447	0.477	0.523	0.473	0.469	0.501	0.525	0.547	0.373	0.43
EKVX	0.894	0.738	0.683	0.345	0.37	0.447	0.429	0.208	0.309	0.241	0.351	0.443	0.344	0.285	0.248	0.366	0.366	0.299	0.209	0.189
LXF-289	0.923	1.04	0.9	0.332	0.162	0.807	0.849	0.655	0.556	0.152	0.961	0.952	1.04	0.788	0.285	0.58	0.571	0.606	0.324	0.221
NCI-H661	0.439	0.66	0.411	0.247	0.196	0.543	0.453	0.309	0.32	0.26	0.863	0.984	0.849	0.858	0.625	0.39	0.398	0.354	0.335	0.312
NCI-H2085	0.715	0.778	0.672	0.436	0.378	0.513	0.491	0.324	0.433	0.287	0.769	0.95	0.803	0.907	0.378	0.443	0.455	0.432	0.324	0.355
NCI-H1793	0.695	0.783	0.612	0.171	0.176	0.321	0.433	–	0.313	0.243	–	0.97	0.458	0.629	0.226	0.316	0.302	0.313	0.216	0.19
LC-2-ad	0.699	0.66	0.307	0.126	0.106	0.448	0.595	0.318	0.237	0.16	0.277	0.279	0.298	0.277	0.28	0.454	0.541	0.421	0.3	0.31
COR-L 105	0.95	0.949	0.794	0.413	0.317	0.374	0.395	0.337	0.327	0.335	1.03	1.02	1.27	0.836	0.844	0.389	0.37	0.435	0.392	0.395
NCI-H1355	0.777	0.935	0.802	0.566	0.323	0.492	0.552	0.276	0.284	0.144	1.09	1.09	0.617	0.919	0.46	0.402	0.382	0.396	0.253	0.221
H3255	0.532	0.69	0.508	0.335	0.305	0.498	0.499	0.381	0.411	0.298	0.541	0.619	0.564	0.536	0.404	0.324	0.324	0.283	0.312	0.279
NCI-H1993	0.648	0.642	0.618	0.536	0.522	0.804	0.802	0.806	0.915	0.66	–	0.662	0.502	0.543	0.399	0.579	0.525	0.535	0.451	0.329
NCI-H1734	0.626	0.519	0.514	0.27	0.216	0.468	0.47	0.266	0.341	0.272	0.391	0.49	0.408	0.415	0.328	0.29	0.245	0.27	0.207	0.172
HOP-62	0.412	0.458	0.185	0.116	0.13	0.796	1.01	0.321	0.448	0.149	0.389	0.361	0.378	0.318	0.243	0.249	0.259	0.285	0.167	0.125
LOU-NH91	0.604	0.498	0.469	0.388	0.322	0.55	0.566	0.474	0.473	0.399	0.403	0.414	0.469	0.359	0.346	0.476	0.449	0.428	0.35	0.364
NCI-H23	0.327	0.298	0.192	0.127	0.122	0.433	0.487	0.275	0.334	0.185	0.659	0.697	0.472	0.411	0.216	0.311	0.251	0.25	0.15	0.152
PC-3 [JPC-3]	0.847	0.993	0.905	0.655	0.506	0.689	0.819	0.576	0.785	0.497	1.1	1.23	1.09	0.977	0.706	0.487	0.596	0.525	0.53	0.488
NCI-H1437	0.799	0.922	0.83	0.406	0.396	0.588	0.504	0.21	0.209	0.122	0.309	0.318	0.303	0.325	0.303	0.306	0.224	0.293	0.256	0.221
NCI-H520	0.759	0.796	0.863	0.543	0.402	0.306	0.307	0.27	0.277	0.223	0.633	0.801	0.708	0.65	0.485	0.215	0.218	0.215	0.203	0.206
NCI-H1666	0.711	0.708	0.625	0.264	0.354	0.469	0.233	0.325	0.21	0.205	0.832	0.866	0.923	0.631	0.563	0.599	0.655	0.594	0.578	0.572
